Results: US20210401926A1, “PHARMACEUTICAL FORMULATIONS OF PEPTIDE INHIBITORS” (CANIMGUIDE THERAPEUTICS AB, priority 2018, published 2021)
Where no end group is shown, it is not given here.

Columns and labels:
healthy PBMC's = test: PBMC activation, CD69 or CD71 by flow cytometry, normal human AB serum; assay type: cell-based; details: 40 μg/mL, 24 hours, RPMI plus 10% human AB serum
Experimental: FIG. 2A-B are a series of graphs illustrating effects of the full length peptide P28R and the 6 amino acid central sequence (32230, FFVKLS, SEQ ID NO: 1) in culture medium containing normal human AB serum. Activation is determined as percentage of cells with enhanced marker CD69 or CD71 using flow cytometry. PBMCs were incubated with the peptides (40 μg/mL) for 24 hours in RPMI plus 10% human AB serum. FIG. 2A illustrates the results of two experiments (420 and 422) performed for each peptide. FIG. 2B illustrates the results of two experiments (424 and 426) performed for each peptide.
P28R (SEQ ID NO: 2) can stimulate PBMC's from healthy controls in short term cultures when RPMI plus 10% normal human AB serum is used as culture medium. Truncations of P28R were also assessed for their ability to activate PBMC's. PBMCs were incubated with the peptides (40 μg/mL) for 24 hours in RPMI plus 10% human AB serum. PBMC activation was measured as percent cells with enhanced expression of either CD69 (FIG. 2A) or CD71 (FIG. 2B) using flow cytometry. Two experiments were performed for each peptide.
A test for direct stimulatory effects on immune cells was performed.

PBMCs [1] = test: PBMC activation (CD69) in culture medium containing cancer sera; assay type: cell-based; details: sera from dogs with cancer or human patients with cancer instead of normal AB serum
Experimental: FIG. 3 is a graph illustrating a comparison of the full length peptide P28R and the 6 amino acid “P28 core” sequence (32230, FFVKLS, SEQ ID NO: 1) in culture medium containing sera from two different cancer patients (“human ca serum 1” 430 and (“human ca serum 2” 432).
Additionally, P28R and P28 core were tested for their ability to alleviate immunosuppression in cancer cells.

PBMCs [2] = test: Direct binding to PBMCs (immunocytochemistry, rosetting of coated beads); details: immunocytochemistry or rosetting of coated beads

Question: Which “PBMC activation (enhanced expression of CD69 or CD71)” value (healthy PBMC's) does the source give for “peptide 32251: truncation of P28R, SEQ ID NO: 4 (KKLDTFFPKLSLFTER; Peptide 32251)” here?
Answer: did not activate healthy PBMC's

Question: With FFVKLS (Peptide 32230) as the substance, how does the “PBMC activation (enhanced expression of CD69 or CD71)” value (healthy PBMC's) read?
Answer: did not activate healthy PBMC's

Question: And the “PBMC activation (enhanced expression of CD69)” value (PBMCs [1])?
Answer: activated PBMCs

Question: For “biotinylated P28R: biotinylated P28R (KKLDTFFVKLSLFTER; also: biotinylated, site not given here)”, which “binding to PBMCs” value (PBMCs [2]) is on record?
Answer: bind directly to PBMCs
